Columns and labels:
[1] = target: T1, Inhibitor of nuclear factor kappa-B kinase subunit alpha (Homo sapiens, UniProt O15111); assay: Inhibition of human recombinant IKK1
T1 sequence (O15111 whole entry): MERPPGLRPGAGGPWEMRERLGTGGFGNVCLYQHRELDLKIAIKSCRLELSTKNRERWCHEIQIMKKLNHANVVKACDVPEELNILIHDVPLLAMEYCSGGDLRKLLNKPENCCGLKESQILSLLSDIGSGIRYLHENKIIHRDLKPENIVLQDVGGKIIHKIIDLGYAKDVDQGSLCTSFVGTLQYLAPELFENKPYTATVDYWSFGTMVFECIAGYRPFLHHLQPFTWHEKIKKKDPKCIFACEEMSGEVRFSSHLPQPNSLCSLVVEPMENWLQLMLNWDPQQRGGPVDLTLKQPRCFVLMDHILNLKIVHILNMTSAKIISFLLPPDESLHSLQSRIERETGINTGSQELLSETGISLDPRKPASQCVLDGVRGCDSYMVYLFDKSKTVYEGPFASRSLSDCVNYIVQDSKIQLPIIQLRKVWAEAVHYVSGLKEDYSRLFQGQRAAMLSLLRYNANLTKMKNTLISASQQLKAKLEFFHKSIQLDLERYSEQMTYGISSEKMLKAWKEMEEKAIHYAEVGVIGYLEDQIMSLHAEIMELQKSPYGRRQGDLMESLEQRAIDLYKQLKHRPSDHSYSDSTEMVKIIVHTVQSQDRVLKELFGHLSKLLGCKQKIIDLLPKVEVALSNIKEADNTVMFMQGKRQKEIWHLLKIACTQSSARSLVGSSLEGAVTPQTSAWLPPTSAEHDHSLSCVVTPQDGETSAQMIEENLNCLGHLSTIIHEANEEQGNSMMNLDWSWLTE

[2] = target: T2, Inhibitor of nuclear factor kappa-B kinase subunit beta (Homo sapiens, UniProt O14920); assay: Inhibition of human recombinant IKK2
T2 sequence (O14920 whole entry): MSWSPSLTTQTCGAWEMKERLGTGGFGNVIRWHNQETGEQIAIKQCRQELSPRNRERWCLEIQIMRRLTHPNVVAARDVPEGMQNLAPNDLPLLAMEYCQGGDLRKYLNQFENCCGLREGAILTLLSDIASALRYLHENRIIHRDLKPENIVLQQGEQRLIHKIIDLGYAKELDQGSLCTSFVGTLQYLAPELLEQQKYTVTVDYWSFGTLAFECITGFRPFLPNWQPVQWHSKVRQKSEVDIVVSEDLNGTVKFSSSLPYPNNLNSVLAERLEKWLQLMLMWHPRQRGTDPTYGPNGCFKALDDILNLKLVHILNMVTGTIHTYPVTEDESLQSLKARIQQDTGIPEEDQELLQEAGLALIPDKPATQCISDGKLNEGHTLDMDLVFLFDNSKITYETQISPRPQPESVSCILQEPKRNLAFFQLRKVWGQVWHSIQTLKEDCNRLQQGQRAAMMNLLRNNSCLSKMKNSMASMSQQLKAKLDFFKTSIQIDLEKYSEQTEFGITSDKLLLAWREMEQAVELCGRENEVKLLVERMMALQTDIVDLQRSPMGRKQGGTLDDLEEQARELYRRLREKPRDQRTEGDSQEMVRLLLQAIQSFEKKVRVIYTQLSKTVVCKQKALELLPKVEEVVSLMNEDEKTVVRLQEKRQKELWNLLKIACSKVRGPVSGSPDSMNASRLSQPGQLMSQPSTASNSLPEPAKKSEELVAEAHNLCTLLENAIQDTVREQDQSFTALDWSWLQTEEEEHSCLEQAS

A549 = assay: Inhibition of TNF-alpha-induced NF-kappaB […] activation in human A549 cells; assay type: functional, cell-based
[3] = target: Rho-associated protein kinase 1 (Homo sapiens, UniProt Q13464); assay: Inhibition of human recombinant ROCK1
Chain of Rho-associated protein kinase 1 (Q13464 whole entry): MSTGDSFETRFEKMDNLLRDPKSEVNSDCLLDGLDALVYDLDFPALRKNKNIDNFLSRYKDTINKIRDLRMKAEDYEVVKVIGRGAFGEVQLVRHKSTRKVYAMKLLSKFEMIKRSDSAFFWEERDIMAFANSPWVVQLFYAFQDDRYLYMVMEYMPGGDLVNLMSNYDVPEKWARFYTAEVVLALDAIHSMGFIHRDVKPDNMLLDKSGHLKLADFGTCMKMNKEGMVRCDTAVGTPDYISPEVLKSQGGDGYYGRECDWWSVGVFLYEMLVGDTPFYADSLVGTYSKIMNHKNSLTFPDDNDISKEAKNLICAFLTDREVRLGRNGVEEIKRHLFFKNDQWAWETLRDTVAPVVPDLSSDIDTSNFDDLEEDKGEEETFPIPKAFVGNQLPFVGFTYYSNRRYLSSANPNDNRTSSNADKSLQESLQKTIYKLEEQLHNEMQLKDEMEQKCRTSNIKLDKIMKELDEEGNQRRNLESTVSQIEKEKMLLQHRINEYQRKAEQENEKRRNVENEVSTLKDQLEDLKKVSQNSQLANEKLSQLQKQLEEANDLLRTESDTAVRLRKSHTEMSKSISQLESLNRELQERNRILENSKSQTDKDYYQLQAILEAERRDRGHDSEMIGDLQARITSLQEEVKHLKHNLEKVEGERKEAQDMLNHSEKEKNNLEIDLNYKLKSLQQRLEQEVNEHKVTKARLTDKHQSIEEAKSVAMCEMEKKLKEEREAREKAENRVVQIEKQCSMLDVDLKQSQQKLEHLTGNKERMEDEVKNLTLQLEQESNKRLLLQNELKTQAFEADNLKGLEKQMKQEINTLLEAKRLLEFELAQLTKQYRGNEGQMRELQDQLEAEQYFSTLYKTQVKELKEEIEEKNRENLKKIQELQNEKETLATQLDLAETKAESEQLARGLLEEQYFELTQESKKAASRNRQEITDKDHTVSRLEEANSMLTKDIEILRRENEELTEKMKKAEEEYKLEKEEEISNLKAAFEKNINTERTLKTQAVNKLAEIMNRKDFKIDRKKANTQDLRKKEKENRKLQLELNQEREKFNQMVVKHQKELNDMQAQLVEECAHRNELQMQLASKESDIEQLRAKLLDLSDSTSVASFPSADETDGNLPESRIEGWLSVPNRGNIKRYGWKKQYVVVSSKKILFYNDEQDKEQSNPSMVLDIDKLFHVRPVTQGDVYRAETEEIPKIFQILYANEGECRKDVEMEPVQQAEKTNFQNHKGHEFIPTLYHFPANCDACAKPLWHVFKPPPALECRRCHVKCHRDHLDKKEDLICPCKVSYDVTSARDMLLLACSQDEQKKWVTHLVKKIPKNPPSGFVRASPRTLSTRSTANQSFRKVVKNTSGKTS

Aurora kinase B = Aurora kinase B (Homo sapiens, UniProt Q96GD4); assay: Inhibition of Aurora B kinase
Chain of Aurora kinase B (Q96GD4 whole entry): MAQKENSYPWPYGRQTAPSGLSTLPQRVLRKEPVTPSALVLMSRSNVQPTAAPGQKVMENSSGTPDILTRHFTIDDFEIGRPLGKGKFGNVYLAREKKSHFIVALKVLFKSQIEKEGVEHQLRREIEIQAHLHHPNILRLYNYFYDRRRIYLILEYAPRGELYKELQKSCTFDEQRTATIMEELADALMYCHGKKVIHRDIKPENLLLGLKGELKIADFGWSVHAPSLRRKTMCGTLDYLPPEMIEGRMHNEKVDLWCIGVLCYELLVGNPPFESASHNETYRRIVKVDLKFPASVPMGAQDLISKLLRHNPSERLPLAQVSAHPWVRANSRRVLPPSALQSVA

[4] = target: Glycogen synthase kinase-3 beta (Homo sapiens, UniProt P49841); assay: Inhibition of GSK3-beta kinase
Chain of Glycogen synthase kinase-3 beta (P49841 whole entry): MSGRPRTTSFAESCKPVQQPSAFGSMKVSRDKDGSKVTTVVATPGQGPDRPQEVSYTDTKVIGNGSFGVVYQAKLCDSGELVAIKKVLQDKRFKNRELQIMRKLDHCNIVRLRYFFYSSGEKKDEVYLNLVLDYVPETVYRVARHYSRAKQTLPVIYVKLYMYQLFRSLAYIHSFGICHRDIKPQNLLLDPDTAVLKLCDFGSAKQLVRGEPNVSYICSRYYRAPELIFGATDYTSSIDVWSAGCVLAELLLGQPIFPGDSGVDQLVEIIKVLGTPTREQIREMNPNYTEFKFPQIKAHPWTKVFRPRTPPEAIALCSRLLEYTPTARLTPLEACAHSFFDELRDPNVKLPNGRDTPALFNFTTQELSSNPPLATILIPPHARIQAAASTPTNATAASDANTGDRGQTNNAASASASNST

Compound	IC50 [1] [nM]	IC50 [2] [nM]	IC50 (A549) [nM]	IC50 [3] [nM]	IC50 (Aurora kinase B) [nM]	IC50 [4] [nM]
CN(C)CCNS(=O)(=O)c1ccc(-c2ccnc3[nH]ccc23)cc1	794	200	–	–	–	–
Cc1cc2c(-c3ccc(S(=O)(=O)NC4CCS(=O)(=O)CC4)cc3)ccnc2[nH]1	12.6	20	50.1	–	–	–
NCCNS(=O)(=O)c1ccc(-c2ccnc3[nH]ccc23)cc1	251	39.8	631	20	–	–
O=S(=O)(NC1CNC1)c1ccc(-c2ccnc3[nH]ccc23)cc1	31.6	39.8	–	–	–	–
Cc1cc2c(-c3ccc(S(=O)(=O)NCCN)cc3)ccnc2[nH]1	126	20	316	316	–	–
O=S(=O)(c1ccc(-c2ccnc3[nH]ccc23)cc1)N1CCCC1	1260	251	–	–	–	–
NC(=O)c1ccc(-c2ccnc3[nH]ccc23)cc1	398	631	–	–	–	–
CNCCNS(=O)(=O)c1ccc(-c2ccnc3[nH]ccc23)cc1	316	31.6	–	–	–	–
CS(=O)(=O)Nc1ccc(-c2ccnc3[nH]ccc23)cc1	794	158	–	–	–	–
Cc1cc2c(-c3ccc(S(=O)(=O)N(C)C4CCS(=O)(=O)CC4)cc3)ccnc2[nH]1	1000	39.8	501	–	–	–
c1ccc(-c2ccnc3[nH]ccc23)cc1	3980	3160	–	–	–	–

The next lines start with the values.

IC50 [1] [nM]	IC50 [2] [nM]	IC50 (A549) [nM]	IC50 [3] [nM]	IC50 (Aurora kinase B) [nM]	IC50 [4] [nM]	Compound
50.1	79.4	–	–	–	–	O=S1(=O)CCC(NS(=O)(=O)c2ccc(-c3ccnc4[nH]ccc34)cc2)CC1
158	20	3980	10000	–	–	NCCNS(=O)(=O)c1ccc(-c2ccnc3[nH]c(CC(N)=O)cc23)cc1
316	20	501	–	–	–	Cc1cc2c(-c3ccc(S(=O)(=O)NCCO)cc3)ccnc2[nH]1
1260	5010	–	–	–	–	NS(=O)(=O)c1cccc(-c2ccnc3[nH]ccc23)c1
158	316	–	–	–	–	NS(=O)(=O)c1ccc(-c2ccnc3[nH]ccc23)cc1
126	15.8	2000	–	–	–	Cc1cc2c(-c3ccc(NS(=O)(=O)CCN)cc3)ccnc2[nH]1
3980	63.1	1000	–	–	–	Cc1cc2c(-c3ccc(NS(C)(=O)=O)cc3)ccnc2[nH]1
3160	39.8	–	> 10000	1580	> 25100	Cc1cc2c(-c3ccc(S(=O)(=O)N(C)CCO)cc3)ccnc2[nH]1
7940	316	2000	–	–	–	Cc1cc2c(-c3ccc(N(C)S(C)(=O)=O)cc3)ccnc2[nH]1
